Measurements reported in US9113629B2, “4-amino-6-(4-substituted-phenyl)-picolinates and 6-amino-2-(4-substituted-phenyl)-pyrimidine-4-carboxylates and their use as herbicides” (DOW AGROSCIENCES LLC, priority 2013, dated 2015).
Where two headings read alike, the source gives them in different places.

Key:
[1] = system: Key Grass and Sedge Weeds as well as Grass Crops; test: Post-emergent Test II herbicidal activity (Table 6); type: in vivo; conditions: post-emergence, 336 h; for pest or weed control at 140 g/ha: application rate 140 g ai/ha; for pest or weed control at 70 g/ha: application rate 70 g ai/ha
Method in brief: (§1)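 Visual injury ratings (0 = no injury, 100 = complete kill) were taken 14 d after treatment, relative to untreated plants. Seedlings at the first–second true leaf stage received overhead spray at 187 L/ha; the highest rate was serially diluted to ½×, ¼×, ⅛× and 1/16×.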

[2] = system: Key Broadleaf Weed and Crop Species; test: Post-emergent Test II herbicidal activity (Table 5); type: in vivo; conditions: post-emergence, 336 h, 14 days after application; for pest or weed control at 70 g/ha: application rate 70 g ai/ha
Method in brief: as §1

[3] = Triticum aestivum, TRZSS (wheat), read-out: Visual Growth Reduction (%) 14 Days After Application, TRZSS
[4] = CYPES: yellow nutsedge (Cyperus esculentus), read-out: Visual Growth Reduction (%) 14 Days After Application, CYPES
[5] = DIGSA: crabgrass (Digitaria sanguinalis), read-out: Visual Growth Reduction (%) 14 Days After Application, DIGSA
[6] = ECHCG: barnyardgrass (Echinochloa crus-galli), read-out: Visual Growth Reduction (%) 14 Days After Application, ECHCG
[7] = ORYSA: rice (Oryza sativa), read-out: Visual Growth Reduction (%) 14 Days After Application, ORYSA
[8] = SETFA: giant foxtail (Setaria faberi), read-out: Visual Growth Reduction (%) 14 Days After Application, SETFA
[9] = SORVU: grain sorghum (Sorghum vulgare), read-out: Visual Growth Reduction (%) 14 Days After Application, SORVU
[10] = ZEAMX: maize, corn (Zea mays), read-out: Visual Growth Reduction (%) 14 Days After Application, ZEAMX
[11] = ABUTH: velvetleaf (Abutilon theophrasti), 140 g ai/ha, post-emergent, read-out: Visual Growth Reduction (%) 14 Days After Application ABUTH
[12] = AMARE: redroot pigweed (Amaranthus retroflexus), 140 g ai/ha, post-emergent, read-out: Visual Growth Reduction (%) 14 Days After Application AMARE
[13] = BRSNN: oilseed-rape, canola (Brassica napus), 140 g ai/ha, post-emergent, read-out: Visual Growth Reduction (%) 14 Days After Application BRSNN
[14] = CHEAL: lambsquarters (Chenopodium album), 140 g ai/ha, post-emergent, read-out: Visual Growth Reduction (%) 14 Days After Application CHEAL
[15] = EPHHL: wild poinsettia (Euphorbia heterophylla), 140 g ai/ha, post-emergent, read-out: Visual Growth Reduction (%) 14 Days After Application EPHHL
[16] = HELAN: sunflower (Helianthus annuus), 140 g ai/ha, post-emergent, read-out: Visual Growth Reduction (%) 14 Days After Application HELAN
[17] = VIOTR: wild pansy (Viola tricolor), 140 g ai/ha, post-emergent, read-out: Visual Growth Reduction (%) 14 Days After Application VIOTR

Row | SMILES | pest or weed control at 140 g/ha [1, 3] | pest or weed control at 140 g/ha [1, 4] | pest or weed control at 140 g/ha [1, 5] | pest or weed control at 140 g/ha [1, 6] | pest or weed control at 140 g/ha [1, 7] | pest or weed control at 140 g/ha [1, 8] | pest or weed control at 140 g/ha [1, 9] | pest or weed control at 140 g/ha [1, 10] | melting point | pest or weed control at 140 g/ha [2, 11] | pest or weed control at 140 g/ha [2, 12] | pest or weed control at 140 g/ha [2, 13] | pest or weed control at 140 g/ha [2, 14] | pest or weed control at 140 g/ha [2, 15] | pest or weed control at 140 g/ha [2, 16] | pest or weed control at 140 g/ha [2, 17] | other results
1 | COc1c(N)nc(-c2ccc(OC(F)(F)F)cc2)nc1C(=O)O [Compound 102] | 0 to 29% | 0 to 29% | 0 to 29% | 0 to 29% | 0 to 29% | 0 to 29% | 0 to 29% | 0 to 29% | 171 to 172.1 °C | 0 to 29% | 0 to 29% | 0 to 29% | 0 to 29% | 95 to 100% | 60 to 74% | 0 to 29% | 
2 | Nc1c(Cl)c(C(=O)O)nc(-c2ccc(OC(F)(F)F)cc2)c1Cl [Compound 105] | 0 to 29% | 0 to 29% | 0 to 29% | 0 to 29% | 0 to 29% | 0 to 29% | 0 to 29% | 0 to 29% | 141.9 to 143.1 °C | 0 to 29% | 0 to 29% | 0 to 29% | 0 to 29% | 0 to 29% | 95 to 100% | 0 to 29% | 
3 | COC(=O)c1nc(-c2ccc(C#N)cc2)nc(N)c1OC [Compound 130] | 0 to 29% | 0 to 29% | 0 to 29% | 0 to 29% | 0 to 29% | 0 to 29% | 0 to 29% | 0 to 29% | 185.1 to 186.9 °C | 0 to 29% | 0 to 29% | 0 to 29% | 0 to 29% | 95 to 100% | 85 to 94% | 0 to 29% | 
4 | Nc1c(F)c(-c2ccc(OC(F)F)cc2F)nc(C(=O)O)c1Cl [Compound 140] | 0 to 29% | 0 to 29% | 0 to 29% |  | 0 to 29% |  | 0 to 29% | 0 to 29% | 149 to 151 °C |  |  |  |  |  |  |  | pest or weed control at 70 g/ha [1, 3]: 0 to 29%; pest or weed control at 70 g/ha [1, 4]: 0 to 29%; pest or weed control at 70 g/ha [1, 5]: 0 to 29%; pest or weed control at 70 g/ha [1, 7]: 0 to 29%; pest or weed control at 70 g/ha [1, 9]: 0 to 29%; pest or weed control at 70 g/ha [1, 10]: 0 to 29%; pest or weed control at 70 g/ha ([2]; ABUTH: velvetleaf (Abutilon theophrasti), read-out: Visual Growth Reduction (%) 14 Days After Application, ABUTH): 0 to 29%; pest or weed control at 140 g/ha ([2]; ABUTH: velvetleaf (Abutilon theophrasti), application rate 140 g ai/ha, read-out: Visual Growth Reduction (%) 14 Days After Application, ABUTH): 0 to 29%; pest or weed control at 70 g/ha ([2]; AMARE: redroot pigweed (Amaranthus retroflexus), read-out: Visual Growth Reduction (%) 14 Days After Application, AMARE): 0 to 29%; pest or weed control at 140 g/ha ([2]; AMARE: redroot pigweed (Amaranthus retroflexus), application rate 140 g ai/ha, read-out: Visual Growth Reduction (%) 14 Days After Application, AMARE): 0 to 29%; pest or weed control at 70 g/ha ([2]; BRSNN: oilseed-rape, canola (Brassica napus), read-out: Visual Growth Reduction (%) 14 Days After Application, BRSNN): 0 to 29%; pest or weed control at 140 g/ha ([2]; BRSNN: oilseed-rape, canola (Brassica napus), application rate 140 g ai/ha, read-out: Visual Growth Reduction (%) 14 Days After Application, BRSNN): 0 to 29%; pest or weed control at 70 g/ha ([2]; CHEAL: lambsquarters (Chenopodium album), read-out: Visual Growth Reduction (%) 14 Days After Application, CHEAL): 0 to 29%; pest or weed control at 140 g/ha ([2]; CHEAL: lambsquarters (Chenopodium album), application rate 140 g ai/ha, read-out: Visual Growth Reduction (%) 14 Days After Application, CHEAL): 0 to 29%; pest or weed control at 70 g/ha ([2]; EPHHL: wild poinsettia (Euphorbia heterophylla), read-out: Visual Growth Reduction (%) 14 Days After Application, EPHHL): 85 to 94%; pest or weed control at 140 g/ha ([2]; EPHHL: wild poinsettia (Euphorbia heterophylla), application rate 140 g ai/ha, read-out: Visual Growth Reduction (%) 14 Days After Application, EPHHL): 85 to 94%; pest or weed control at 70 g/ha ([2]; HELAN: sunflower (Helianthus annuus), read-out: Visual Growth Reduction (%) 14 Days After Application, HELAN): 60 to 74%; pest or weed control at 140 g/ha ([2]; HELAN: sunflower (Helianthus annuus), application rate 140 g ai/ha, read-out: Visual Growth Reduction (%) 14 Days After Application, HELAN): 75 to 84%; pest or weed control at 70 g/ha ([2]; VIOTR: wild pansy (Viola tricolor), read-out: Visual Growth Reduction (%) 14 Days After Application, VIOTR): 0 to 29%; pest or weed control at 140 g/ha ([2]; VIOTR: wild pansy (Viola tricolor), application rate 140 g ai/ha, read-out: Visual Growth Reduction (%) 14 Days After Application, VIOTR): 0 to 29%
